How the values were obtained:
[1] = tested on: anti-Fetuin, anti-poliovirus and anti-influenza virus IgA antibody titer in the feces; parameters: species or system cynomolgus monkeys (Macaca fascicularis); settings: cynomolgus monkey, in vivo
Caco-2 cells [2] = experiment: Morphological analysis by electron microscope; format: cell-based, human; settings: Caco-2 single-layer film in Transwell, final concentration 100 μm, apical side, 3 days
Description: M cells generally have the morphological characteristics that microvilli on the apical side are shorter than those of epithelial cells in the vicinity thereof.

Caco-2 cells [3] = experiment: M-cell differentiation induction test, in vitro (FACS analysis of GP2 expression); settings: for effect on expression of GP2 (in words): Caco-2 cells, 100 μM, 3 days, FACS; for fold induction at 100 µM: Homo sapiens, Caco-2, 72 h, read-out: GP2 Expression Level (relative value when DMSO = 1)

## O=C(O)CCCCCCCCCO [10-Hydroxydecanoic Acid, 10-hydroxydecanoic acid]
[1]
  anti-Fetuin IgA antibody titer in the feces: increases
  anti-influenza virus IgA antibody titer in the feces: increases
  anti-poliovirus IgA antibody titer in the feces: increases
Caco-2 cells [2]
  cell morphology (microvilli) by electron microscope: cells with short microvilli were observed
Caco-2 cells [3]
  effect on expression of GP2 (in words): induced the expression of GP2
  fold induction at 100 µM: 2.63

## C[C@@H](O)CCCCC/C=C/C(=O)O [Formula (4), (2E,9R)-9-hydroxy-2-decenoic acid]
Caco-2 cells [3]
  effect on expression of GP2 (in words): induced the expression of GP2
  fold induction at 100 µM: 1.72

## COC(=O)/C=C/CCCCC[C@@H](O)CO [Formula (5), (2E,9R)-methyl-9,10-dihydroxy-2-decenoate]
Caco-2 cells [3]
  effect on expression of GP2 (in words): intensely induced the expression of GP2
  fold induction at 100 µM: 2.46

## O=C(O)/C=C/CCCCCCC[C@@H](O)CO [Formula (6), (2E,11R)-11,12-dihydroxy-2-dodecenoic acid]
Caco-2 cells [3]
  effect on expression of GP2 (in words): intensely induced the expression of GP2
  fold induction at 100 µM: 4.03

## O=C(O)CC(O)CCCCCCCO (stereo not shown) [Formula (7), (2E)-3,10-dihydroxy-decanoic acid]
Caco-2 cells [3]
  effect on expression of GP2 (in words): induced the expression of GP2
  fold induction at 100 µM: 1.48

## O=C(O)CCCCCCCCC(=O)O [Formula (8), sebacic acid]
Caco-2 cells [3]
  effect on expression of GP2 (in words): induced the expression of GP2
  fold induction at 100 µM: 1.45

## O=C(O)/C=C/CCC[C@@H](O)CO [Formula (9), (2E,7R)-7,8-dihydroxy-2-octenoic acid]
Caco-2 cells [3]
  effect on expression of GP2 (in words): suppressed the expression of GP2
  fold induction at 100 µM: 0.75

## O=C(O)/C=C\CCCCC[C@@H](O)CO [Formula (10), (2Z,9R)-9,10-dihydroxy-2-decenoic acid]
Caco-2 cells [3]
  effect on expression of GP2 (in words): suppressed the expression of GP2
  fold induction at 100 µM: 0.83

## CC(=O)OCCCC/C=C/C(=O)O [Formula (11), (2E)-7-acetoxy-2-heptenoic acid]
Caco-2 cells [3]
  effect on expression of GP2 (in words): intensely suppressed the expression of GP2
  fold induction at 100 µM: 0.16

## CC(=O)OC[C@@H](CCCCC/C=C/C(=O)O)OC(C)=O [Formula (12), (2E,9R)-9,10-diacetoxy-2-decenoic acid]
Caco-2 cells [3]
  effect on expression of GP2 (in words): intensely suppressed the expression of GP2
  fold induction at 100 µM: 0.48

## O=C(O)/C=C/CCCCC[C@H](O)CO [Formula (13), (2E,9S)-9,10-dihydroxy-2-decenoic acid]
Caco-2 cells [3]
  effect on expression of GP2 (in words): intensely suppressed the expression of GP2
  fold induction at 100 µM: 0.39

## CCCCCC(O)C(O)/C=C/C(O)CCCCCCCC(=O)O [Formula (14), 9(S),12(S),13(S)-trihydroxy-10(E)-octadecenoic acid]
Caco-2 cells [3]
  effect on expression of GP2 (in words): suppressed the expression of GP2
  fold induction at 100 µM: 0.74

Source: patent US11089805B2, “Mucosal immunomodulator” (Yamada Bee Company, Inc., priority 2016, dated 2021)
